Where two headings read alike, the source gives them in different places.
Legend:
[1] = system: hepatitis B surface antigen (HBSAg) from HepG2.2.15 cells, a hepatitis B virus-expressing cell line; assay: HBsAg ELISA in supernatant of HepG2.2.15 cells; type: cell-based; settings: HepG2.2.15, 96 h
Procedure: HepG2.2.15 cells, a hepatitis B virus-expressing cell line (Sells, M. A. et al., PNAS, 1987), were plated at 50,000 cells/well in DMEM/F12 media (Gibco) with 10% fetal bovine serum (Omega Scientific) in a 24-well or 96-well plate (Corning), in 2-3 replicates for each test compound/concentration plus controls, and incubated in a humidified 5% CO2 chamber at 37° C. The next day, media was aspirated, cells were washed once with phosphate buffered saline, pH7.4 (Gibco), and 1 mL DMEM/12 media was replaced. Test compounds were added in 3-fold dilutions from up to 100 μM down to 333 pM, with vehicle (dimethylsulfoxide (Sigma)) as a control. After four days of culture in a humidified 5% CO2 chamber at 37° C., plates were spun down in a centrifuge at 300 g for 10 minutes at room temperature. Supernatant from each well was collected and either frozen at −20° C. or used directly for quantitation of hepatitis B surface antigen (HBSAg) in an enzyme-linked immunosorbent assay (ELISA). The supernatant was tested using the HBSAg ELISA kit (Abnova Cat. No KA0286) per the manufacturer's instructions. Results of replicates were averaged and nonlinear curve fitting was used to determine the half maximal inhibitory concentration (IC50) for each test compound.

[2] = target: T1, rPAPD5 (Homo sapiens, UniProt Q8NDF8); assay: differential scanning fluorimetry (DSF) binding and stabilization of rPAPD5; settings: for ΔTm at 100 µM: 100 μM test compound, read-out: ΔTm at 100 μM; for ΔTm at 1 µM: read-out: ΔTm at 1 μM
T1 construct: made in house
T1 sequence (Q8NDF8 68-698 isoform Q8NDF8-5 limits assumed): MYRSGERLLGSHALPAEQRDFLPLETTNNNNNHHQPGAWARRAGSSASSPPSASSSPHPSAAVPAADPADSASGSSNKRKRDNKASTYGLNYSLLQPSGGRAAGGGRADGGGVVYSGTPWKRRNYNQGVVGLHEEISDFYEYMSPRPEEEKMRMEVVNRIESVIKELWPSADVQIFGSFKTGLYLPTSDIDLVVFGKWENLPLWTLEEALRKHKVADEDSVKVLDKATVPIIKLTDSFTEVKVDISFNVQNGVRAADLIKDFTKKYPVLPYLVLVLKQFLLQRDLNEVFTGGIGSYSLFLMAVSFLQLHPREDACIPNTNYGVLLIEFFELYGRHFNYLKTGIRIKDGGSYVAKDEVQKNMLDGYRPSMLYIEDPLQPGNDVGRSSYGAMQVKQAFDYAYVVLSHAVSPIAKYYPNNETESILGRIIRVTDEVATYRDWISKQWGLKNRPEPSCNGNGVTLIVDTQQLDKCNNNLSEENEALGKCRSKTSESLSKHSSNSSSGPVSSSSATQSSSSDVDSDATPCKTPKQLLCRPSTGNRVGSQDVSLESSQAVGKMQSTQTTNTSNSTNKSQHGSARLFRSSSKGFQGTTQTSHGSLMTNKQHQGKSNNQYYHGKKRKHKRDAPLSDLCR
Outline: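 Differential scanning fluorimetry was used to measure how test compounds bind and thermally stabilize rPAPD5. The reaction contained SYPRO orange dye diluted 1:5000 in […] of buffer with […], 25 mM Tris-HCl, 5 mM MgCl2 and 50 mM KCl. ΔTm was calculated relative to a DMSO control.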

[3] = system: TERC 3′ end processing in DC patient iPSCs; assay: TERC 3′ end processing by RACE in DC patient / PARN-mutant iPSCs; type: cell-based, human; settings: Homo sapiens, iPSC, read-out: iPSC-based RACE activity
Procedure: Compound 266A had activity ˜2-logs higher in the in vitro RNA oligoadenylation assay compared to the parental compound cmpd. 1, approximating the activity of RG7834 (FIG. 7). […] 1. Compounds 295A and 296A had activity 2-3 logs higher in DC patient iPSCs, showing TERC maturation at 1 nM, similar to RG7834 (FIG. 6). […] Referring to Table 1D, “+” refers to activity at 1 μM, “++” refers to activity above 1 nM and below 1 μM, and “+++” refers to activity at <1 nM, “ND” refers to not determined.

[4] = 10 μM test compound (Table 2a), read-out: ΔTm at 10 μM
[5] = patient iPSCs, concentration class at which activity is seen

| Compound | IC50 [1] | ΔTm at 100 µM ([2]; shift vs DMSO control) | ΔTm at 1 µM ([2]; 1 μM test compound (Table 2a)) | ΔTm at 10 µM [2, 4] | minimal effective concentration [3, 5] | other results |
| --- | --- | --- | --- | --- | --- | --- |
| Cc1ccc(Nc2c(S(=O)(=O)N3CCOCC3)cnc3ccc(Cl)cc23)c(C(=O)O)c1 [Compound 269A, 2-[(6-chloro-3-morpholinosulfonyl-4-quinolyl)amino]-5-methyl-benzoic acid] | 1680 nM | > 5 °C |  |  |  |  |
| Cc1ccc(Nc2c(-c3ncco3)cnc3ccc(Cl)cc23)c(C(=O)O)c1 [Compound 301A, 2-[(6-chloro-3-oxazol-2-yl-4-quinolyl)amino]-5-methyl-benzoic acid] | 942 nM | > 5 °C |  |  |  |  |
| CN1CC=C(c2cnc3ccc(Cl)cc3c2Nc2ccc(Cl)cc2C(=O)O)CC1 [Compound 367A, 5-chloro-2-[[6-chloro-3-(1-methyl-3,6-dihydro-2H-pyridin-4-yl)-4-quinolyl]amino]benzoic acid] | 902 nM | > 5 °C | > 5 °C | > 5 °C | 1 µM |  |
| O=C(O)c1cc(Cl)ccc1Nc1c(N2CCNCC2)cnc2ccc(Cl)cc12 [Compound 362A, 5-chloro-2-[(6-chloro-3-piperazin-1-yl-4-quinolyl)amino]benzoic acid] |  | > 5 °C | > 5 °C | > 5 °C | 1 µM |  |
| O=C(O)c1cc(F)ccc1Nc1c(S(=O)(=O)N2CCOCC2)cnc2ccc(Cl)cc12 [Compound 267A, 2-[(6-chloro-3-morpholinosulfonyl-4-quinolyl)amino]-5-fluoro-benzoic acid] | 4840 nM | > 5 °C |  |  |  |  |
| O=C(O)c1ccccc1Nc1c(C2CCSCC2)cnc2ccc(Cl)cc12 [Compound 298A, 2-[(6-chloro-3-tetrahydrothiopyran-4-yl-4-quinolyl)amino]benzoic acid] | 1750 nM | > 5 °C |  |  |  |  |
| O=C(O)c1ccccc1Nc1c(C2=CCOCC2)cnc2ccc(Cl)cc12 [Compound 204A-INT, 2-[[6-chloro-3-(3,6-dihydro-2H-pyran-4-yl)-4-quinolyl]amino]benzoic acid] | 2690 nM | > 5 °C |  |  |  |  |
| O=C(O)c1cc(Cl)cc(F)c1Nc1c(S(=O)(=O)N2CCSCC2)cnc2ccc(Cl)cc12 [Compound 427A, 5-chloro-2-[(6-chloro-3-thiomorpholinosulfonyl-4-quinolyl)amino]-3-fluoro-benzoic acid] |  | > 5 °C | > 5 °C | > 5 °C | 0.001 to 1 µM |  |
| O=C(O)c1cc(Cl)ccc1Nc1c(C2CCNC2)cnc2ccc(Cl)cc12 (stereo not drawn) [Compound 357A, 5-chloro-2-((6-chloro-3-(pyrrolidin-3-yl)quinolin-4-yl)amino)benzoic acid] |  | > 5 °C | > 5 °C | > 5 °C | 1 µM |  |
| COc1ccc(Nc2c(C3CCOCC3)cnc3ccc(Cl)cc23)c(C(=O)O)c1 [Compound 307A, 2-[(6-chloro-3-tetrahydropyran-4-yl-4-quinolyl)amino]-5-methoxy-benzoic acid] | 1320 nM | > 5 °C |  |  |  |  |
| Cc1ccc(Nc2c(C3CCOCC3)cnc3ccc(Cl)cc23)c(C(=O)O)c1 [Compound 305A, 2-[(6-chloro-3-tetrahydropyran-4-yl-4-quinolyl)amino]-5-methyl-benzoic acid] | 66 nM | > 5 °C |  |  |  |  |
| O=C(O)c1ccccc1Nc1c(NC2CCC(F)(F)CC2)cnc2ccc(Cl)cc12 [Compound 185A, 2-[[6-chloro-3-[(4,4-difluorocyclohexyl)amino]-4-quinolyl]amino]benzoic acid] | 2190 nM | > 5 °C |  |  |  |  |
| O=C(O)c1ccccc1Nc1c(-c2ncco2)cnc2ccc(Cl)cc12 [Compound 129A, 2-[(6-chloro-3-oxazol-2-yl-4-quinolyl)amino]benzoic acid] | 4600 nM | > 5 °C |  |  |  |  |
| O=C1CC=C(c2cnc3ccc(Cl)cc3c2Nc2ccc(Cl)cc2C(=O)O)CC1 [Compound 403A, 5-chloro-2-[[6-chloro-3-(4-oxocyclohexen-1-yl)-4-quinolyl]amino]benzoic acid] |  | > 5 °C | > 5 °C | > 5 °C | 1 µM |  |
| O=C(O)c1cc(Cl)ccc1Nc1c(C2CCC(F)CC2)cnc2ccc(Cl)cc12 (stereo not drawn) [Compound 400A, 5-chloro-2-[[6-chloro-3-(4-fluorocyclohexyl)-4-quinolyl]amino]benzoic acid] |  |  |  |  |  | ΔTm at 10 µM ([2]; read-out: ΔTm (Table 2, starred: the compound was tested at 10 μM)): > 5 °C; ΔTm at 1 µM [2]: > 5 °C; ΔTm at 10 µM ([2]; read-out: ΔTm at 10 μM): > 5 °C; minimal effective concentration [3]: < 0.001 µM |
| O=C(O)c1cc(F)ccc1Nc1c(C2CCOCC2)cnc2ccc(Cl)cc12 [Compound 303A, 2-[(6-chloro-3-tetrahydropyran-4-yl-4-quinolyl)amino]-5-fluoro-benzoic acid] | 229 nM | > 5 °C |  |  |  |  |
| COc1ccc(Nc2c(S(=O)(=O)N3CCOCC3)cnc3ccc(Cl)cc23)c(C(=O)O)c1 [Compound 270A, 2-[(6-chloro-3-morpholinosulfonyl-4-quinolyl)amino]-5-methoxy-benzoic acid] | 4980 nM | > 5 °C |  |  |  |  |
| O=C(O)c1cc(Cl)c(F)cc1Nc1c(S(=O)(=O)N2CCSCC2)cnc2ccc(Cl)cc12 [Compound 425A, 5-chloro-2-[(6-chloro-3-thiomorpholinosulfonyl-4-quinolyl)amino]-4-fluoro-benzoic acid] |  | > 5 °C | > 5 °C | > 5 °C | 0.001 to 1 µM |  |
| O=C(O)c1cc(Cl)ccc1Nc1c(C2=CCNC2)cnc2ccc(Cl)cc12 [Compound 402A, 5-chloro-2-((6-chloro-3-(2,5-dihydro-1H-pyrrol-3-yl)quinolin-4-yl)amino)benzoic acid] |  | > 5 °C | > 5 °C | > 5 °C | 1 µM |  |
| O=C(O)c1ccccc1Nc1c(-c2ncco2)cnc2ccc(Br)cc12 [Compound 130A] | 8890 nM | > 5 °C |  |  |  |  |
| O=C(O)c1ccccc1Nc1c(S(=O)(=O)N2CCOCC2)cnc2ccc(F)cc12 [Compound 233A, 2-[(6-fluoro-3-morpholinosulfonyl-4-quinolyl)amino]benzoic acid] | 29100 nM | > 5 °C |  |  |  |  |
| O=C(O)c1cc(Cl)ccc1Nc1c(N2CCC(Cl)(Cl)CC2)cnc2ccc(Cl)cc12 [Compound 430A, 5-chloro-2-[[6-chloro-3-(4,4-dichloro-1-piperidyl)-4-quinolyl]amino]benzoic acid] |  |  | > 5 °C | > 5 °C | < 0.001 µM | ΔTm at 10 µM ([2]; 10 μM test compound, shift vs DMSO control, read-out: ΔTm (Table 2, starred: the compound was tested at 10 μM)): > 5 °C |
| O=C(O)c1ccccc1Nc1c(S(=O)(=O)Nc2nn[nH]n2)cnc2ccc(Cl)cc12 [Compound 226A, 2-[[6-chloro-3-(2H-tetrazol-5-ylsulfamoyl)-4-quinolyl]amino]benzoic acid] | 9460 nM | > 5 °C |  |  |  |  |
| Cc1ccc(Nc2c(C3=CCOCC3)cnc3ccc(Cl)cc23)c(C(=O)O)c1 [Compound 306A, 2-[[6-chloro-3-(3,6-dihydro-2H-pyran-4-yl)-4-quinolyl]amino]-5-methyl-benzoic acid] | 1050 nM | > 5 °C |  |  |  |  |
| O=C(O)c1ccccc1Nc1c(C2CCOCC2)cnc2ccc(Cl)cc12 [Compound 204A, 2-[(6-chloro-3-tetrahydropyran-4-yl-4-quinolyl)amino]benzoic acid] | 3390 nM | > 5 °C |  |  |  |  |
| O=C(O)c1cc(Cl)ccc1Nc1c(C(=O)N2CCOCC2)cnc2ccc(Cl)cc12 [Compound 372A, 5-chloro-2-[[6-chloro-3-(morpholine-4-carbonyl)-4-quinolyl]amino]benzoic acid] |  | > 5 °C | > 5 °C | > 5 °C | 1 µM |  |
| O=C(O)c1ccccc1Nc1c(C2=CCC(F)(F)CC2)cnc2ccc(Cl)cc12 [Compound 205A-INT, 2-[[6-chloro-3-(4,4-difluorocyclohexen-1-yl)-4-quinolyl]amino]benzoic acid] | 1300 nM | > 5 °C |  |  |  |  |

Reference: patent US20250026769A1, “PAPD5 INHIBITORS AND METHODS OF USE THEREOF” (The Children's Medical Center Corporation, priority 2021, published 2025)
